US9102620B2, “Deuterated N-ethyl-N-phenyl-1,2-dihydro-4-hydroxy-5-chloro-1-methyl-2-oxoquinoline-3-carboxamide, salts and uses thereof” (TEVA PHARMACEUTICAL INDUSTRIES, LTD., priority 2010, dated 2015)
“And” between values parts separate entries of the source, which are not always exact repeats. Equal entries are not always repeated. Where two headings read alike, the source gives them in different places.

Tests used:
[1] = Pharmacokinetic profile in rat plasma following oral administration; assay type: in vivo
Experimental: The main objectives of this example were: • Quantification of Compound 1, Compound 2, Compound 3 and Laquinimod in rat plasma using LC/MS/MS bioanalytical method. • Characterization of the pharmacokinetic profile of Compound 1, Compound 2, Compound 3 and Laquinimod following oral (PO) administration at a dose of 0.2 mg/kg. • The measurement DELAQ concentrations in the collected plasma samples. Rats cannulated at the right common jugular vein by polyethylene tubing were used. In the in-life part, three cannulated female rats were treated with each of the four test articles at dose of 0.2 mg/kg. Blood was withdrawn from the rats at five different time points for the preparation of plasma. The concentrations of Compound 1, Compound 2, Compound 3, laquinimod, and DELAQ were determined in these plasma samples, using applicable LC/MS/MS methods. Oral administration was performed by oral gavage at a dosage volume of 5 ml/kg using a blunt feeding stainless steel needle (Popper & Sons, USA). Body weights were measured before dose administration and doses were calculated on the basis of individual body weight. Blood were withdrawn from animals at the following time points: 1, 2, 4, 8 and 24 hours after dosing as detailed in the table below. The actual sampling time were recorded. Each animal was restrained firmly. After the removal of the seal the port of the cannula was accessed with an appropriate blunted needle mounted on a syringe containing PBS. After having withdrawn approximately 100 μL of blood, the syringe was changed to a clean heparinized syringe. Approximately 250 μL of blood was collected for the preparation of plasma. The first 100 μL fraction of blood was returned and 250 μL of PBS was given to the animal through the catheter. The catheter was filled by heparinized glycerol (100 IU/ml) solution prepared by mixing 10 ml stock heparin (200 IU/ml) with 10 ml of sterile glycerol (d=1.26 g/mL). Blood specimens were mixed immediately and were placed on water ice. Whole blood was centrifuged at 2500 g for 10 min at 4° C., and the separated plasma was transferred into pre-labeled polypropylene tubes and the tubes were frozen at −70° C. within 70 minutes of collection. The concentrations of test items (Compound 1, Compound 2, Compound 3 and Laquinimod) and the concentration of DELAQ were determined in the plasma samples by using reliable LC/MS/MS assay. Pharmacokinetic parameters were calculated and the mean plasma levels versus time curves were evaluated. The following pharmacokinetic parameters were determined from the mean plasma concentration-time data (mean of three animals at each time point) of Compound 1, Compound 2, Compound 3 and Laquinimod.

MOG induced EAE = MOG induced EAE in C57BL/6 mice; assay type: in vivo; conditions: 10 mg/kg orally, daily
CYP1A2 = conditions: human, 3 days; for Enzyme activity, Phenacetin O-dealkylation (CYP1A2) / Percent positive control, Phenacetin O-dealkylation (CYP1A2) activity: hepatocytes
Experimental: (§1) After treatment, the cells were incubated in situ with marker substrates for the analysis of phenacetin O-dealkylation (marker for CYP1A2) and midazolam 1′-hydroxylation (marker for CYP3A4/5) by LC/MS/MS.
(§2) Incubations of hepatocytes with probe substrates were conducted in accordance with SOP L5041.02. Approximately 24 hours after the last treatment, spent media was aspirated from the wells, and each well was rinsed two times with pre-warmed (37±2° C.) fresh culture media. Media was aspirated from the wells and reactions were started by addition of 200 μL pre-warmed media containing the probe substrate to each well. […] At 30 minutes, an aliquot (150 μL) of the incubation mixture was removed and added to a well of a 96-well plate containing 300 μL of stop reagent (acetonitrile) and internal standard (Table 2). The mixtures were mixed thoroughly and allowed to sit for at least 15 minutes at 2-8° C. Samples were centrifuged at 2000×g for 10 minutes at 2-8° C., and supernatant fractions were analyzed by LC/MS/MS.
(§3) All analyses were performed with validated LC/MS/MS methods. The procedures used for the analysis of each metabolite followed the applicable LC/MS/MS analytical method SOPs and are summarized in Table 2. The MS equipment was either an ABI Sciex (Applied Biosystems/MDS SCIEX) API 4000 or API 3000 instrument with Shimadzu HPLC pumps and autosampler systems.
(§4) Individual rates of reaction from like treatment groups were averaged, and for those groups with n≧3, standard deviations were determined. Fold increases were determined by dividing the enzymatic rate for each treatment group by that of the vehicle control. Percent positive control was calculated with the following equation: […]

CYP3A4/5 = conditions: human, 3 days; for Enzyme activity, Midazolam 1′-hydroxylation (CYP3A4/5) / Percent positive control, Midazolam 1′-hydroxylation (CYP3A4/5) activity: hepatocytes
Experimental: as §1, §2, §3, §4

[2] = test system: human hepatocyte culture H971; assay: Morphology of cultured human hepatocytes after treatment; assay type: cell-based; conditions: within 24 hours after final treatment
Experimental: At the time of isolation the viability of the human hepatocyte preparation was 70.9%. During and after the 72-hour adaptation period, the culture was observed daily by light microscopy and judged to be morphologically normal with confluency adequate for treatment with test and control articles. Within 24 hours after the final treatment, hepatocytes were photographed to document their morphological integrity and any overt signs of toxicity of the test articles. Representative photomicrographs are maintained at the Testing Facility. […] Prior to and during treatment, human hepatocyte cultures formed confluent monolayers with few intercellular spaces; they were cuboidal and contained intact cell membranes and granular cytoplasm with one or two centrally located nuclei.

[3] = female, rat, po, 0.2 mg/kg, Average of rats
[4] = female, rat, po, 0.2 mg/kg, individual rats
[5] = individual rats, oral 0.2 mg/kg

## [2H]C([2H])([2H])C([2H])([2H])N(C(=O)c1c(O)c2c(Cl)cccc2n(C)c1=O)c1ccccc1 [Compound 2, N-D5-ethyl-N-phenyl-1,2-dihydro-4-hydroxy-5-chloro-1-methyl-2-oxoquinoline-3-carboxamide]
[1]; [3]
  AUC(0-inf): 12300 ng·h/mL
  AUC(0-t): 10300 ng·h/mL
  half-life: 13.8 h
[1]; female, rat, po, 0.2 mg/kg, Average of rats, read-out: Cmax
  Cmax: 725 ng/mL
[1]; female, rat, po, 0.2 mg/kg, Average of rats, read-out: Tmax
  Tmax: 1.8 h
[1]; [4]
  AUC(0-inf): 10000 ng·h/mL
  AUC(0-t): 10000 ng·h/mL
  half-life: 13.6 h
[1]; female, rat, po, 0.2 mg/kg, individual rats, read-out: Cmax
  Cmax: 704 ng/mL
[1]; female, rat, po, 0.2 mg/kg, individual rats, read-out: Tmax
  Tmax: 2 h
[1]; [5]
  AUCinf: 14699.6 ng·h/mL and 12439.0 ng·h/mL and 11975.3 ng·h/mL
  AUClast: 10422.1 ng·h/mL and 8741.6 ng·h/mL and 11975.3 ng·h/mL
  Cmax: 827.6 ng/mL and 551.4 ng/mL and 816.2 ng/mL
  T1/2: 13.4 h and 14.6 h
  Tmax: 1.0 h
MOG induced EAE
  GMS value (group mean score): 0.79 ± 0.2
  MMS value (mean maximal score): 2.1 ± 1.3
  Mean Duration: 13.2 ± 7.7 days
  Mean Onset: 15.3 ± 6.8 days
  activity in inhibition of EAE clinical signs compared to laquinimod: no significant difference in activity
MOG induced EAE; Day 0 to Day 30
  Mortality: 0/15
MOG induced EAE; compared to vehicle
  % inhibition 1 (according to incidence): 7.1%
  % inhibition 2 (according to MMS): 34.4%
  % inhibition 3 (according to GMS): 64.3%
MOG induced EAE; sick mice/group
  Incidence: 13/15
CYP1A2; 0.01 μM
  Fold Increase, Phenacetin O-dealkylation (CYP1A2) activity: 7.39 fold
  Enzyme activity, Phenacetin O-dealkylation (CYP1A2): 22.1 ± 2.7 pmol/mg protein/min
  Percent positive control, Phenacetin O-dealkylation (CYP1A2) activity: 23.3%
CYP1A2; 0.05 μM
  Fold Increase, Phenacetin O-dealkylation (CYP1A2) activity: 10.54 fold
  Enzyme activity, Phenacetin O-dealkylation (CYP1A2): 31.6 ± 2.6 pmol/mg protein/min
  Percent positive control, Phenacetin O-dealkylation (CYP1A2) activity: 34.9%
CYP1A2; 0.1 μM
  Fold Increase, Phenacetin O-dealkylation (CYP1A2) activity: 16.12 fold
  Enzyme activity, Phenacetin O-dealkylation (CYP1A2): 48.2 ± 2.4 pmol/mg protein/min
  Percent positive control, Phenacetin O-dealkylation (CYP1A2) activity: 55.2%
CYP1A2; 1 μM
  Fold Increase, Phenacetin O-dealkylation (CYP1A2) activity: 30.36 fold
  Enzyme activity, Phenacetin O-dealkylation (CYP1A2): 90.8 ± 11.5 pmol/mg protein/min
  Percent positive control, Phenacetin O-dealkylation (CYP1A2) activity: 107%
CYP1A2; 10 μM
  Fold Increase, Phenacetin O-dealkylation (CYP1A2) activity: 60.21 fold
  Enzyme activity, Phenacetin O-dealkylation (CYP1A2): 180 ± 8 pmol/mg protein/min
  Percent positive control, Phenacetin O-dealkylation (CYP1A2) activity: 216%
CYP3A4/5; 0.01 μM
  Fold Increase, Midazolam 1′-hydroxylation (CYP3A4/5) activity: 0.91 fold
  Enzyme activity, Midazolam 1′-hydroxylation (CYP3A4/5): 0.179 ± 0.006 pmol/mg protein/min
  Percent positive control, Midazolam 1′-hydroxylation (CYP3A4/5) activity: −2.24%
CYP3A4/5; 0.05 μM
  Fold Increase, Midazolam 1′-hydroxylation (CYP3A4/5) activity: 0.77 fold
  Enzyme activity, Midazolam 1′-hydroxylation (CYP3A4/5): 0.151 ± 0.009 pmol/mg protein/min
  Percent positive control, Midazolam 1′-hydroxylation (CYP3A4/5) activity: −5.94%
CYP3A4/5; 0.1 μM
  Fold Increase, Midazolam 1′-hydroxylation (CYP3A4/5) activity: 0.72 fold
  Enzyme activity, Midazolam 1′-hydroxylation (CYP3A4/5): 0.140 ± 0.010 pmol/mg protein/min
  Percent positive control, Midazolam 1′-hydroxylation (CYP3A4/5) activity: −7.46%
CYP3A4/5; 1 μM
  Fold Increase, Midazolam 1′-hydroxylation (CYP3A4/5) activity: 0.56 fold
  Enzyme activity, Midazolam 1′-hydroxylation (CYP3A4/5): 0.109 ± 0.010 pmol/mg protein/min
  Percent positive control, Midazolam 1′-hydroxylation (CYP3A4/5) activity: −11.5%
CYP3A4/5; 10 μM
  Fold Increase, Midazolam 1′-hydroxylation (CYP3A4/5) activity: 0.51 fold
  Enzyme activity, Midazolam 1′-hydroxylation (CYP3A4/5): 0.101 ± 0.003 pmol/mg protein/min
  Percent positive control, Midazolam 1′-hydroxylation (CYP3A4/5) activity: −12.7%
[2]
  cell morphology after treatment: no changes in cell morphology
